Tests used:
[1] = tested on: caspase 3/7 in PLC/PRF/5 cells; assay: Caspase Glo 3/7 activity assay in PLC/PRF/5 cells; format: cell-based
[2] = tested on: caspase 3/7 in MDA-MB-468 cells; assay: Caspase Glo 3/7 activity assay in MDA-MB-468 cells; format: cell-based; conditions: 24 hours
Protocol: Further anti-proliferative effect of 1-3 was evaluated in the TNBC cell line MDA-MB-468 based on biomarker (CDK2) inhibition. […] The mechanistic cell cycle block is aligned with biomarker. In addition, Caspase Glo 3/7 activation was tested to confirm the sub-G1 (apoptotic) arrest in cell cycle.

With `Nc1nccc(-c2c[nH]c3nccc(Oc4cccc(F)c4)c23)n1` [I-3, 4-(4-(3-fluorophenoxy)-1H-pyrrolo[2,3-b]pyridin-3-yl)pyrimidin-2-amine] the “Caspase 3/7 activation (comparison)” value [1] was “greater activation of caspase 3/7 by 1-3 than by PF-06873600”, the IC50 ([1]; Homo sapiens) was 2450 nM and the “Caspase 3/7 activation” value [2] was “clear activation of caspase 3/7”. The IC50 ([2]; Homo sapiens) was 652 nM.

Source: patent publication US20240261297A1, “ANTI-CDK INHIBITORS FOR CANCER TREATMENT” (St. John's Cancer Institute, priority 2021, published 2024)
